{"source": "paper PMC5670239", "about": "“Structural basis for mutually exclusive co-transcriptional nuclear cap-binding complexes with either NELF-E or ARS2” (Nature Communications, 2017)", "key": {"CBC": {"molecular_target": "T1, CBC (Homo sapiens, UniProt P52298)", "T1 sequence (P52298 1-156)": "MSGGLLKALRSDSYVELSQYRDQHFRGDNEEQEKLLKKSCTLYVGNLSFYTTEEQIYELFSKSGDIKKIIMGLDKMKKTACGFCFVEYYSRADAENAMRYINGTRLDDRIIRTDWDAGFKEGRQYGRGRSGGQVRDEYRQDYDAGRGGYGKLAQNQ", "T1 sequence (Q09161 20-790 partner)": "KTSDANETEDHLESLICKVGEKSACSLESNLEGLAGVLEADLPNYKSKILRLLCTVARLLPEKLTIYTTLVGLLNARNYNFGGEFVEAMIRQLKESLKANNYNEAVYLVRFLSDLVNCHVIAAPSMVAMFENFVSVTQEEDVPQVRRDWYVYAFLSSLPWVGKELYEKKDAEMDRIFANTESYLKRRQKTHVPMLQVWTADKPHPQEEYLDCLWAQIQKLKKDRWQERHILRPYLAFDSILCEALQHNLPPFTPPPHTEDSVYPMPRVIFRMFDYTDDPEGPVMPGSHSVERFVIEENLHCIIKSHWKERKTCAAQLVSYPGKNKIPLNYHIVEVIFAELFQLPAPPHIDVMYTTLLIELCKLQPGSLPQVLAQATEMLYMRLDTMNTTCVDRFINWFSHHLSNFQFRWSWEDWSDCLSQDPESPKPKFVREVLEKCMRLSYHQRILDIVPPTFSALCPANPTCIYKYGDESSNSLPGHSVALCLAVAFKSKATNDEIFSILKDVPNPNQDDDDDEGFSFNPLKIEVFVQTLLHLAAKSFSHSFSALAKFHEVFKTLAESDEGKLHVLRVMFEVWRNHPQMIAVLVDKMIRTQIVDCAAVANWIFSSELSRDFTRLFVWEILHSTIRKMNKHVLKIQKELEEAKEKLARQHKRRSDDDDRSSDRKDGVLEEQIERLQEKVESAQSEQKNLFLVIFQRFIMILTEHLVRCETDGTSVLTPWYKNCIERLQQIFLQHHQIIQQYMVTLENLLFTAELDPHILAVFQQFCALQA", "test": "ITC, binding to CBC without cap analogue", "conditions": "ITC (MicroCal ITC200), 25 °C, 20 mM HEPES, 120 mM NaCl, 2 mM TCEP, pH 7.8, single-site fit, no cap analogue pre-bound, mean ± SD of at least two independent experiments", "excerpt": "hARS2 isoform-4 (871 residues, UniProt:Q9BXP5-4, also known as isoform-e, NP_001122326) constructs (residues 147–871, 147–845, 763–871, 763–845, 827–871) hNELF-E (NM_002904.5) (244–380, 244–360) and hPHAX (NM_032177.3) (1–394, 103–294, 103–308, 103–327) were cloned into pETM11 (EMBL). Full-length hNELF-E (1–380) was cloned into pFASTBac and CBP20 into pETM30. Primers used are given in Supplementary Table 2. All constructs were expressed in E. coli Rosetta 2 (Novagen), except full-length NELF-E and CBP80ΔNLS (CBP80 with residues 1–19 deleted[2]), which were expressed in High Five insect cells (Life Technology). Cells were harvested and lysed by sonication in lysis buffer containing 50 mM HEPES, pH 7.8, 300 mM NaCl, 10% (v/v) glycerol, 5 mM β-mercaptoethanol. Lysates were clarified by centrifugation and applied on an equilibrated Ni-sepharose column (GE Healthcare), washed with 20 mM imidazole in lysis buffer, and eluted with 300 mM imidazole in lysis buffer. While dialysing into 20 mM HEPES, pH 7.8, 120 mM NaCl, 10% (v/v) glycerol, 5 mM β-mercaptoethanol, the N-terminal 6-histidine-tag was cleaved with His-tagged Tobacco Etch Virus (TEV) protease overnight in a ratio 1:100 mg TEV per mg protein. The cleaved protein was further purified first on Ni-sepharose to remove TEV and then using an anion exchange column (HiTrap Q, GE Healthcare) followed if necessary by a Heparin column (GE Healthcare). In both cases a NaCl gradient from 50 to 800 mM in 20 mM HEPES 7.8, 0.5 mM tris(2-carboxyethyl)phosphine was used. To reconstitute the CBC heterodimer, cleared His-tagged CBP20 lysate was first immobilised on a Ni-sepharose column. After washing the column with lysis buffer, the cleared CBP80 lysate was applied to the column and further purification steps performed as described above. To remove the access of CBP20 the flow through of the Ni-column after TEV cleavage was loaded on an anion exchange column (HiTrap Q, GE Healthcare) and CBC eluted by a NaCl gradient as described above. In the text we refer to CBP80ΔNLS and CBP80ΔNLS-CBP20 as CBP80 and CBC, respectively. […]"}, "CBC-ARS2 827–871": {"molecular_target": "T2, CBC-ARS2 827–871 (Homo sapiens, UniProt P52298)", "T2 sequence (P52298 1-156)": "T1 sequence (P52298 1-156)", "T2 sequence (Q09161 20-790 partner)": "T1 sequence (Q09161 20-790 partner)", "T2 sequence (Q9BXP5 832-876 partner)": "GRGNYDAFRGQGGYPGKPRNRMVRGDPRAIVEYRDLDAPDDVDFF", "test": "ITC, m^7GTP titrated to CBC saturated with ARS2 827–871", "type": "binding", "excerpt": "(§1) Supplementary Figure 7. Influence of ARS2 and NELF-E on m7GTP binding to CBC.\n(§2) Representative isothermal titration calorimetry data, presented as in the caption to Figure 1C,\n(§3) allowing determination of the affinity of CBC to m7GTP in the absence (left) or in the\n(§4) presence of bound ARS2827-871 (middle) or NELF-E244-380 (right). CBC or CBC saturated\n(§5) with 2.2 molar excess of ARS2827-871 or NELF-E244-380 in the sample cell was titrated by\n(§6) m7GTP. KD values represent the average from at least two independent experiments (see […]"}, "CBC-NELF-E 244–380": {"molecular_target": "CBC-NELF-E 244–380 (Homo sapiens, UniProt P52298)", "sequence (P18615 244-380 partner, one chain of several)": "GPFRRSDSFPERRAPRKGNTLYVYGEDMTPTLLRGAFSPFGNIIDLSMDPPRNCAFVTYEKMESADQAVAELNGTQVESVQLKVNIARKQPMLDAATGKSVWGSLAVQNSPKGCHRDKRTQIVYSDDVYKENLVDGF", "test": "ITC, m^7GTP titrated to CBC saturated with NELF-E 244–380", "type": "binding", "excerpt": "as §1, §2, §3, §4, §5, §6"}, "[1]": {"conditions": "compared to m^7GTP binding to CBC alone"}}}
{"smiles": "C[n+]1cn([C@@H]2O[C@H](COP(=O)(O)OP(=O)([O-])OP(=O)(O)O)[C@@H](O)[C@H]2O)c2nc(N)[nH]c(=O)c21", "note": "[m^7GTP]", "values": [{"measurement": "Kd", "setting": "CBC", "result": 100, "unit": "nM"}, {"measurement": "Kd", "setting": "CBC; SD", "result": "126 ± 45", "unit": "nM"}, {"measurement": "Kd", "setting": "CBC-ARS2 827–871; 25 °C, pH 7.8, CBC saturated with 2.2 molar excess of ARS2 827–871, titrated by m^7GTP, mean ± SD of 2 experiments, SD", "result": "18 ± 1", "unit": "nM"}, {"measurement": "Increase of the affinity of CBC for cap (m^7GTP) by saturating ARS2", "setting": "CBC-ARS2 827–871; [1]", "result": "~ 7 factor"}, {"measurement": "Kd", "setting": "CBC-NELF-E 244–380; 25 °C, pH 7.8, CBC saturated with 2.2 molar excess of NELF-E 244–380, titrated by m^7GTP, mean ± SD of 3 experiments, SD", "result": "44 ± 2", "unit": "nM"}, {"measurement": "Increase of the affinity of CBC for cap (m^7GTP) by saturating NELF-E", "setting": "CBC-NELF-E 244–380; [1]", "result": "~ 3 factor"}]}
